Assay results from patent US12077503B2, “Substituted cyclic amides and their use as herbicides” (FMC CORPORATION, priority 2015, dated 2024).

What was measured:
Type in all cases: in vivo
[1] = tested on: blackgrass (Alopecurus myosuroides); assay: Test A postemergence
Summary of the method: (§1)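 Preemergence directed soil spray on seeded pots, or postemergence application to plants 2–10 cm, one- to two-leaf. Solvent mixture non-phytotoxic, with surfactant. Scored ~10 d later, visually, 0–100 vs untreated.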

[2] = tested on: ryegrass, Italian (Italian ryegrass, Lolium multiflorum); assay: Test A postemergence
Summary of the method: as §1

[3] = tested on: ragweed (common ragweed, Ambrosia elatior); assay: Test A postemergence
Summary of the method: as §1

[4] = tested on: barnyardgrass (Echinochloa crus-galli); assay: Test A postemergence
Summary of the method: as §1

[5] = tested on: wheat (Triticum aestivum); assay: Test A postemergence
Summary of the method: as §1

Kochia (Kochia scoparia) [6] = assay: Test A postemergence
Summary of the method: as §1

[7] = tested on: pigweed (Amaranthus retroflexus); assay: Test A postemergence
Summary of the method: as §1

[8] = tested on: Galium (catchweed bedstraw, Galium aparine); assay: Test A postemergence
Summary of the method: as §1

[9] = tested on: giant foxtail (Setaria faberii); assay: Test A postemergence
Summary of the method: as §1

corn (Zea mays) = assay: Test A postemergence
Summary of the method: as §1

[10] = tested on: ryegrass, Italian (Italian ryegrass, Lolium multiflorum); assay: Test A preemergence
Summary of the method: as §1

[11] = tested on: ragweed (common ragweed, Ambrosia elatior); assay: Test A preemergence
Summary of the method: as §1

[12] = tested on: barnyardgrass (Echinochloa crus-galli); assay: Test A preemergence
Summary of the method: as §1

Kochia (Kochia scoparia) [13] = assay: Test A preemergence
Summary of the method: as §1

[14] = tested on: pigweed (Amaranthus retroflexus); assay: Test A preemergence
[15] = tested on: giant foxtail (Setaria faberii); assay: Test A preemergence
Summary of the method: as §1

rice (Oryra sativa) = assay: Test B flooded paddy test; conditions: Flood, 250 g ai/ha; 0 to 100 scale where 0 is no effect and 100 is complete control; 13 to 15 d
Summary of the method: (§2)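 Plants at 2-leaf stage flooded to 3 cm above soil, with compounds applied directly to paddy water and that depth maintained. Plants kept in greenhouse 13–15 d. Visual rating versus controls on a 0 (no effect) to 100 (complete control) scale.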

[16] = tested on: barnyardgrass (Echinochloa crus-galli); assay: Test B flooded paddy test; conditions: Flood, 250 g ai/ha; 0 to 100 scale where 0 is no effect and 100 is complete control; 13 to 15 d
Summary of the method: as §2

[17] = tested on: ducksalad (Heteranthera limosa); assay: Test B flooded paddy test; conditions: Flood, 250 g ai/ha; 0 to 100 scale where 0 is no effect and 100 is complete control; 13 to 15 d
Summary of the method: as §2

[18] = tested on: sedge, umbrella (small-flower umbrella sedge, Cyperus difformis); assay: Test B flooded paddy test; conditions: Flood, 250 g ai/ha; 0 to 100 scale where 0 is no effect and 100 is complete control; 13 to 15 d
Summary of the method: as §2

[19] = tested on: barnyardgrass (Echinochloa crus-galli); assay: Test C flooded paddy test; conditions: Flood; for Plant response rating (scale of 0 to 100), Barnyardgrass: 0 is no effect, 100 is complete control
Summary of the method: (§3)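 Test compounds were dosed straight into the flood water of pots holding 2-leaf-stage plants, with water kept 3 cm above the soil. Greenhouse plants were scored visually against controls after 13 to 15 d, from 0 (no effect) to 100 (complete control).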

[20] = tested on: ducksalad (Heteranthera limosa); assay: Test C flooded paddy test; conditions: Flood; for Plant response rating (scale of 0 to 100), Ducksalad: 0 is no effect, 100 is complete control
Summary of the method: as §3

rice (Oryza sativa) = assay: Test C flooded paddy test; conditions: Flood; for Plant response rating (scale of 0 to 100), Rice: 0 is no effect, 100 is complete control
Summary of the method: as §3

[21] = tested on: sedge, umbrella (small-flower umbrella sedge, Cyperus difformis); assay: Test C flooded paddy test; conditions: Flood; for Plant response rating (scale of 0 to 100), Sedge, Umbrella: 0 is no effect, 100 is complete control
Summary of the method: as §3

[22] = 125 g ai/ha, postemergence, visual rating after approx. 10 d, 0 to 100 scale (0 no effect, 100 complete control)
[23] = 500 g ai/ha, postemergence, visual injury, 0 to 100 scale (0 no effect, 100 complete control), approx. 10 d
[24] = 125 g ai/ha, Preemergence, visual injury after approximately 10 d, 0 to 100 scale where 0 is no effect and 100 is complete control
[25] = 500 g ai/ha, preemergence, 0 to 100 scale, 0 = no effect, 100 = complete control
[26] = 31 g ai/ha, scale 0 to 100 (0 no effect, 100 complete control), 13 to 15 d
[27] = 125 g ai/ha, postemergence, visual injury rating on 0 to 100 scale (0 no effect, 100 complete control), approx. 10 d
[28] = Postemergence, 500 g ai/ha, 0 to 100 scale where 0 is no effect and 100 is complete control
[29] = Preemergence, 500 g ai/ha, visual injury approx. 10 d

Cc1ccc(C2CN(C)C(=O)C2C(=O)Nc2ccc(F)cc2F)cc1 (centres unmarked) [Compound 664]
Plant response rating, Blackgrass [1, 22]: 50
Plant response rating, Blackgrass [1, 23]: 60
Plant response rating, Ryegrass, Italian [2, 22]: 30
Plant response rating, Ryegrass, Italian [2, 23]: 70
Plant response rating, Ragweed [3, 22]: 10
Plant response rating, Ragweed [3, 23]: 20
Plant response rating, Barnyardgrass [4, 22]: 90
Plant response rating, Barnyardgrass [4, 23]: 90
Plant response rating, Wheat [5, 22]: 50
Plant response rating, Wheat [5, 23]: 70
Plant response rating, Kochia (Kochia (Kochia scoparia) [6]; [22]): 60
Plant response rating, Kochia (Kochia (Kochia scoparia) [6]; [23]): 70
Plant response rating, Pigweed [7, 22]: 20
Plant response rating, Pigweed [7, 23]: 20
Plant response rating, Galium [8, 22]: 50
Plant response rating, Galium [8, 23]: 60
Plant response rating, Foxtail, Giant [9, 22]: 90
Plant response rating, Foxtail, Giant [9, 23]: 90
Plant response rating, Corn (corn (Zea mays); [22]): 50
Plant response rating, Corn (corn (Zea mays); [23]): 90
Plant response rating, Ryegrass, Italian [10, 24]: 20
Plant response rating, Ryegrass, Italian [10, 25]: 80
Plant response rating, Ragweed [11, 24]: 20
Plant response rating, Ragweed [11, 25]: 80
Plant response rating, Barnyardgrass [12, 24]: 90
Plant response rating, Barnyardgrass [12, 25]: 90
Plant response rating, Kochia (Kochia (Kochia scoparia) [13]; [24]): 70
Plant response rating, Kochia (Kochia (Kochia scoparia) [13]; [25]): 70
Plant response rating, Pigweed [14, 24]: 60
Plant response rating, Pigweed [14, 25]: 60
Plant response rating, Foxtail, Giant [15, 24]: 90
Plant response rating, Foxtail, Giant [15, 25]: 100
Plant response rating, Rice (rice (Oryra sativa)): 0
Plant response rating, Barnyardgrass [16]: 85
Plant response rating, Ducksalad [17]: 100
Plant response rating, Sedge, Umbrella [18]: 0
Plant response rating, Barnyardgrass [19, 26]: 0
Plant response rating (scale of 0 to 100), Barnyardgrass ([19]; 62 g ai/ha): 65
Plant response rating (scale of 0 to 100), Barnyardgrass ([19]; 125 g ai/ha): 70
Plant response rating (scale of 0 to 100), Barnyardgrass ([19]; 250 g ai/ha): 70
Plant response rating, Ducksalad [20, 26]: 45
Plant response rating (scale of 0 to 100), Ducksalad ([20]; 62 g ai/ha): 70
Plant response rating (scale of 0 to 100), Ducksalad ([20]; 125 g ai/ha): 85
Plant response rating (scale of 0 to 100), Ducksalad ([20]; 250 g ai/ha): 100
Plant response rating, Rice (rice (Oryza sativa); [26]): 0
Plant response rating (scale of 0 to 100), Rice (rice (Oryza sativa); 62 g ai/ha): 0
Plant response rating (scale of 0 to 100), Rice (rice (Oryza sativa); 125 g ai/ha): 0
Plant response rating (scale of 0 to 100), Rice (rice (Oryza sativa); 250 g ai/ha): 0
Plant response rating, Sedge, Umbrella [21, 26]: 0
Plant response rating (scale of 0 to 100), Sedge, Umbrella ([21]; 62 g ai/ha): 0
Plant response rating (scale of 0 to 100), Sedge, Umbrella ([21]; 125 g ai/ha): 0
Plant response rating (scale of 0 to 100), Sedge, Umbrella ([21]; 250 g ai/ha): 0

O=C1NCC(c2cccc(F)c2F)C1C(=O)Nc1cccc(F)c1F (centres unmarked) [Compound 487]
Blackgrass plant response rating [1, 27]: 0
Plant response rating, Blackgrass [1, 28]: 30
Ryegrass, Italian plant response rating [2, 27]: 0
Plant response rating, Ryegrass, Italian [2, 28]: 20
Ragweed plant response rating [3, 27]: 0
Plant response rating, Ragweed [3, 28]: 0
Barnyardgrass plant response rating [4, 27]: 80
Plant response rating, Barnyardgrass [4, 28]: 90
Wheat plant response rating [5, 27]: 0
Plant response rating, Wheat [5, 28]: 20
Kochia plant response rating (Kochia (Kochia scoparia) [6]; [27]): 0
Plant response rating, Kochia (Kochia (Kochia scoparia) [6]; [28]): 30
Pigweed plant response rating [7, 27]: 0
Plant response rating, Pigweed [7, 28]: 20
Galium plant response rating [8, 27]: 0
Plant response rating, Galium [8, 28]: 0
Foxtail, Giant plant response rating [9, 27]: 80
Plant response rating, Foxtail, Giant [9, 28]: 90
Corn plant response rating (corn (Zea mays); [27]): 0
Plant response rating, Corn (corn (Zea mays); [28]): 20
Plant response rating, Ryegrass, Italian [10, 24]: 20
Ryegrass, Italian plant response rating (0 to 100 scale, 0 is no effect, 100 is complete control) [10, 29]: 40
Plant response rating, Ragweed [11, 24]: 30
Ragweed plant response rating (0 to 100 scale, 0 is no effect, 100 is complete control) [11, 29]: 30
Plant response rating, Barnyardgrass [12, 24]: 90
Barnyardgrass plant response rating (0 to 100 scale, 0 is no effect, 100 is complete control) [12, 29]: 90
Plant response rating, Kochia (Kochia (Kochia scoparia) [13]; [24]): 30
Kochia plant response rating (0 to 100 scale, 0 is no effect, 100 is complete control) (Kochia (Kochia scoparia) [13]; [29]): 60
Plant response rating, Pigweed [14, 24]: 0
Pigweed plant response rating (0 to 100 scale, 0 is no effect, 100 is complete control) [14, 29]: 30
Plant response rating, Foxtail, Giant [15, 24]: 90
Foxtail, Giant plant response rating (0 to 100 scale, 0 is no effect, 100 is complete control) [15, 29]: 90
Plant response rating, Rice (rice (Oryra sativa)): 0
Plant response rating, Barnyardgrass [16]: 75
Plant response rating, Ducksalad [17]: 95
Plant response rating, Sedge, Umbrella [18]: 0
Plant response rating (scale of 0 to 100), Barnyardgrass ([19]; 31 g ai/ha): 0
Plant response rating (scale of 0 to 100), Barnyardgrass ([19]; 62 g ai/ha): 15
Plant response rating (scale of 0 to 100), Barnyardgrass ([19]; 125 g ai/ha): 20
Plant response rating (scale of 0 to 100), Barnyardgrass ([19]; 250 g ai/ha): 65
Plant response rating (scale of 0 to 100), Ducksalad ([20]; 31 g ai/ha): 30
Plant response rating (scale of 0 to 100), Ducksalad ([20]; 62 g ai/ha): 45
Plant response rating (scale of 0 to 100), Ducksalad ([20]; 125 g ai/ha): 85
Plant response rating (scale of 0 to 100), Ducksalad ([20]; 250 g ai/ha): 100
Plant response rating (scale of 0 to 100), Rice (rice (Oryza sativa); 31 g ai/ha): 0
Plant response rating (scale of 0 to 100), Rice (rice (Oryza sativa); 62 g ai/ha): 0
Plant response rating (scale of 0 to 100), Rice (rice (Oryza sativa); 125 g ai/ha): 0
Plant response rating (scale of 0 to 100), Rice (rice (Oryza sativa); 250 g ai/ha): 0
Plant response rating (scale of 0 to 100), Sedge, Umbrella ([21]; 31 g ai/ha): 0
Plant response rating (scale of 0 to 100), Sedge, Umbrella ([21]; 62 g ai/ha): 0
Plant response rating (scale of 0 to 100), Sedge, Umbrella ([21]; 125 g ai/ha): 0
Plant response rating (scale of 0 to 100), Sedge, Umbrella ([21]; 250 g ai/ha): 0
